ChEMBL document CHEMBL4229438, “N-Acylhydrazones as drugs” (Bioorg Med Chem Lett, 2018)
pIC50: −log10 of the molar value. Blank lines part the entries; values can stand above or below the molecule they belong to.

How the values were obtained:
[1] = biological target: Muscarinic acetylcholine receptor M3 (Rattus norvegicus, UniProt P08483); experiment: Agonist activity at endothelial M3 receptor in Wistar-Kyoto rat thoracic aortic rings assessed as inhibition of phenylephrine-induced contraction; format: functional
Chain of Muscarinic acetylcholine receptor M3 (P08483 whole entry): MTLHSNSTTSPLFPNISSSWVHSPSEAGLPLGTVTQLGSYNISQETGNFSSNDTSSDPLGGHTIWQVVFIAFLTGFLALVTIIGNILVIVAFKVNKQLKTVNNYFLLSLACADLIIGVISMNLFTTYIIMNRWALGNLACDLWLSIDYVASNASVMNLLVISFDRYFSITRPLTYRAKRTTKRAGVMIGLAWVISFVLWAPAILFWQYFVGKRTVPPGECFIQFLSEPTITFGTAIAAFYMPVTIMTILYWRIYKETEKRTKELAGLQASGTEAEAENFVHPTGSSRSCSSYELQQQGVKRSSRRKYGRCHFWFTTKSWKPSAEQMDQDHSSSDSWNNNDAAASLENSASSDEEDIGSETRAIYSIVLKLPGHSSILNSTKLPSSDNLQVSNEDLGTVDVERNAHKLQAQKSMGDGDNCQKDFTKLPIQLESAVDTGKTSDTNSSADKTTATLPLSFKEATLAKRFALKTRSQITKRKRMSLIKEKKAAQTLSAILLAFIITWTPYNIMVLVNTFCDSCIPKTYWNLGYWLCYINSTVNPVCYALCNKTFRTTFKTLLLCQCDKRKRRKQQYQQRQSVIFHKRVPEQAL

Thoracic aorta = experiment: Vasodilatory activity in Wistar rat thoracic aortic rings assessed as inhibition of noradrenaline-induced contraction; format: functional, tissue-based
[2] = Stability in rat plasma assessed as parent compound remaining at 100 uM after 10 hrs by LC-MS analysis; format: ADME, cell-free; details: read-out: Stability
Caspase-3 (Mus musculus) [3] = biological target: T1, Caspase-3 (Mus musculus) (UniProt P70677); details: 2.5 uM
T1 sequence (whole entry): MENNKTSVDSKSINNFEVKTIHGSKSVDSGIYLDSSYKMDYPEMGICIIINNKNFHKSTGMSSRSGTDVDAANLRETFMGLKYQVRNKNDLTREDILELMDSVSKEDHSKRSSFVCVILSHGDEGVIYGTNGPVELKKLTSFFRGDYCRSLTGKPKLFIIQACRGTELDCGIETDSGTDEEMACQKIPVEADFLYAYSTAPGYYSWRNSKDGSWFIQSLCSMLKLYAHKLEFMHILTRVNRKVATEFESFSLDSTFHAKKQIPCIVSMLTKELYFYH
Description: Activation of procaspase-3 in mouse 3LL cells assessed as increase in cell death by measuring combination index at 2.5 uM after 24 hrs in presence of 100 nM doxorubucin by alamar blue assay

Caspase-3 (Mus musculus) [4] = biological target: T1, Caspase-3 (Mus musculus); details: 2.5 uM; remark: listed apart in the source
Description: Activation of procaspase-3 in mouse K7M2 cells assessed as increase in cell death by measuring combination index at 2.5 uM after 24 hrs in presence of 100 nM doxorubucin by alamar blue assay

Caspase-3 (Mus musculus) [5] = biological target: T1, Caspase-3 (Mus musculus); details: 15 uM
Description: Activation of procaspase-3 in mouse B16F10 cells assessed as increase in cell death by measuring combination index at 15 uM after 24 hrs in presence of 25 nM doxorubucin by alamar blue assay

Caspase-3 (Mus musculus) [6] = biological target: T1, Caspase-3 (Mus musculus); details: 4T1, 2.5 uM
Description: Activation of procaspase-3 in mouse 4T1 cells assessed as increase in cell death by measuring combination index at 2.5 uM after 24 hrs in presence of 250 nM doxorubucin by alamar blue assay

Caspase-3 (Mus musculus) [7] = biological target: T1, Caspase-3 (Mus musculus); details: 2.5 uM; remark: listed apart in the source
Description: Activation of procaspase-3 in mouse K7M2 cells assessed as increase in cell death by measuring combination index at 2.5 uM after 24 hrs in presence of 250 nM doxorubucin by alamar blue assay

Caspase-3 (Mus musculus) [8] = biological target: T1, Caspase-3 (Mus musculus); details: 15 uM; remark: listed apart in the source
Description: Activation of procaspase-3 in mouse B16F10 cells assessed as increase in cell death by measuring combination index at 15 uM after 24 hrs in presence of 250 nM doxorubucin by alamar blue assay

Caspase-3 (Mus musculus) [9] = biological target: T1, Caspase-3 (Mus musculus); details: 7.5 uM
Description: Activation of procaspase-3 in mouse 3LL cells assessed as increase in cell death by measuring combination index at 7.5 uM after 24 hrs in presence of 25 nM doxorubucin by alamar blue assay

Caspase-3 (Mus musculus) [10] = biological target: T1, Caspase-3 (Mus musculus); details: EL4, 10 uM
Description: Activation of procaspase-3 in mouse EL4 cells assessed as increase in cell death by measuring combination index at 10 uM after 24 hrs in presence of 1500 nM doxorubucin by alamar blue assay

Caspase-3 (Mus musculus) [11] = biological target: T1, Caspase-3 (Mus musculus); details: 5 uM
Description: Activation of procaspase-3 in mouse K7M2 cells assessed as increase in cell death by measuring combination index at 5 uM after 24 hrs in presence of 25 nM doxorubucin by alamar blue assay

Caspase-3 (Mus musculus) [12] = biological target: T1, Caspase-3 (Mus musculus); details: 7.5 uM; remark: listed apart in the source
Description: Activation of procaspase-3 in mouse B16F10 cells assessed as increase in cell death by measuring combination index at 7.5 uM after 24 hrs in presence of 10 nM doxorubucin by alamar blue assay

Caspase-3 (Mus musculus) [13] = biological target: T1, Caspase-3 (Mus musculus); details: EL4, 10 uM; remark: listed apart in the source
Description: Activation of procaspase-3 in mouse EL4 cells assessed as increase in cell death by measuring combination index at 10 uM after 24 hrs in presence of 1000 nM doxorubucin by alamar blue assay

Caspase-3 (Mus musculus) [14] = biological target: T1, Caspase-3 (Mus musculus); details: 15 uM; remark: listed apart in the source
Description: Activation of procaspase-3 in mouse B16F10 cells assessed as increase in cell death by measuring combination index at 15 uM after 24 hrs in presence of 50 nM doxorubucin by alamar blue assay

Caspase-3 (Mus musculus) [15] = biological target: T1, Caspase-3 (Mus musculus); details: 4T1, 5 uM
Description: Activation of procaspase-3 in mouse 4T1 cells assessed as increase in cell death by measuring combination index at 5 uM after 24 hrs in presence of 25 nM doxorubucin by alamar blue assay

Caspase-3 (Mus musculus) [16] = biological target: T1, Caspase-3 (Mus musculus); details: 15 uM; remark: listed apart in the source
Description: Activation of procaspase-3 in mouse B16F10 cells assessed as increase in cell death by measuring combination index at 15 uM after 24 hrs in presence of 100 nM doxorubucin by alamar blue assay

Caspase-3 (Mus musculus) [17] = biological target: T1, Caspase-3 (Mus musculus); details: EL4, 5 uM
Description: Activation of procaspase-3 in mouse EL4 cells assessed as increase in cell death by measuring combination index at 5 uM after 24 hrs in presence of 1500 nM doxorubucin by alamar blue assay

Caspase-3 (Mus musculus) [18] = biological target: T1, Caspase-3 (Mus musculus); details: 7.5 uM; remark: listed apart in the source
Description: Activation of procaspase-3 in mouse 3LL cells assessed as increase in cell death by measuring combination index at 7.5 uM after 24 hrs in presence of 100 nM doxorubucin by alamar blue assay

Caspase-3 (Mus musculus) [19] = biological target: T1, Caspase-3 (Mus musculus); details: 4T1, 2.5 uM; remark: listed apart in the source
Description: Activation of procaspase-3 in mouse 4T1 cells assessed as increase in cell death by measuring combination index at 2.5 uM after 24 hrs in presence of 25 nM doxorubucin by alamar blue assay

Caspase-3 (Mus musculus) [20] = biological target: T1, Caspase-3 (Mus musculus); details: 7.5 uM; remark: listed apart in the source
Description: Activation of procaspase-3 in mouse 3LL cells assessed as increase in cell death by measuring combination index at 7.5 uM after 24 hrs in presence of 10 nM doxorubucin by alamar blue assay

Caspase-3 (Mus musculus) [21] = biological target: T1, Caspase-3 (Mus musculus); details: 4T1, 2.5 uM; remark: listed apart in the source
Description: Activation of procaspase-3 in mouse 4T1 cells assessed as increase in cell death by measuring combination index at 2.5 uM after 24 hrs in presence of 10 nM doxorubucin by alamar blue assay

Caspase-3 (Mus musculus) [22] = biological target: T1, Caspase-3 (Mus musculus); details: 15 uM; remark: listed apart in the source
Description: Activation of procaspase-3 in mouse B16F10 cells assessed as increase in cell death by measuring combination index at 15 uM after 24 hrs in presence of 10 nM doxorubucin by alamar blue assay

Caspase-3 (Mus musculus) [23] = biological target: T1, Caspase-3 (Mus musculus); details: 5 uM; remark: listed apart in the source
Description: Activation of procaspase-3 in mouse K7M2 cells assessed as increase in cell death by measuring combination index at 5 uM after 24 hrs in presence of 250 nM doxorubucin by alamar blue assay

Caspase-3 (Mus musculus) [24] = biological target: T1, Caspase-3 (Mus musculus); details: EL4, 5 uM; remark: listed apart in the source
Description: Activation of procaspase-3 in mouse EL4 cells assessed as increase in cell death by measuring combination index at 5 uM after 24 hrs in presence of 1000 nM doxorubucin by alamar blue assay

Caspase-3 (Mus musculus) [25] = biological target: T1, Caspase-3 (Mus musculus); details: EL4, 10 uM; remark: listed apart in the source
Description: Activation of procaspase-3 in mouse EL4 cells assessed as increase in cell death by measuring combination index at 10 uM after 24 hrs in presence of 2500 nM doxorubucin by alamar blue assay

Caspase-3 (Mus musculus) [26] = biological target: T1, Caspase-3 (Mus musculus); details: 2.5 uM; remark: listed apart in the source
Description: Activation of procaspase-3 in mouse K7M2 cells assessed as increase in cell death by measuring combination index at 2.5 uM after 24 hrs in presence of 10 nM doxorubucin by alamar blue assay

Caspase-3 (Mus musculus) [27] = biological target: T1, Caspase-3 (Mus musculus); details: 2.5 uM; remark: listed apart in the source
Description: Activation of procaspase-3 in mouse K7M2 cells assessed as increase in cell death by measuring combination index at 2.5 uM after 24 hrs in presence of 50 nM doxorubucin by alamar blue assay

Caspase-3 (Mus musculus) [28] = biological target: T1, Caspase-3 (Mus musculus); details: EL4, 10 uM; remark: listed apart in the source
Description: Activation of procaspase-3 in mouse EL4 cells assessed as increase in cell death by measuring combination index at 10 uM after 24 hrs in presence of 500 nM doxorubucin by alamar blue assay

Caspase-3 (Mus musculus) [29] = biological target: T1, Caspase-3 (Mus musculus); details: 4T1, 2.5 uM; remark: listed apart in the source
Description: Activation of procaspase-3 in mouse 4T1 cells assessed as increase in cell death by measuring combination index at 2.5 uM after 24 hrs in presence of 50 nM doxorubucin by alamar blue assay

Caspase-3 (Mus musculus) [30] = biological target: T1, Caspase-3 (Mus musculus); details: 4T1, 5 uM; remark: listed apart in the source
Description: Activation of procaspase-3 in mouse 4T1 cells assessed as increase in cell death by measuring combination index at 5 uM after 24 hrs in presence of 10 nM doxorubucin by alamar blue assay

Caspase-3 (Mus musculus) [31] = biological target: T1, Caspase-3 (Mus musculus); details: 7.5 uM; remark: listed apart in the source
Description: Activation of procaspase-3 in mouse B16F10 cells assessed as increase in cell death by measuring combination index at 7.5 uM after 24 hrs in presence of 250 nM doxorubucin by alamar blue assay

Caspase-3 (Mus musculus) [32] = biological target: T1, Caspase-3 (Mus musculus); details: 7.5 uM; remark: listed apart in the source
Description: Activation of procaspase-3 in mouse B16F10 cells assessed as increase in cell death by measuring combination index at 7.5 uM after 24 hrs in presence of 100 nM doxorubucin by alamar blue assay

Caspase-3 (Mus musculus) [33] = biological target: T1, Caspase-3 (Mus musculus); details: 4T1, 5 uM; remark: listed apart in the source
Description: Activation of procaspase-3 in mouse 4T1 cells assessed as increase in cell death by measuring combination index at 5 uM after 24 hrs in presence of 100 nM doxorubucin by alamar blue assay

Caspase-3 (Mus musculus) [34] = biological target: T1, Caspase-3 (Mus musculus); details: EL4, 5 uM; remark: listed apart in the source
Description: Activation of procaspase-3 in mouse EL4 cells assessed as increase in cell death by measuring combination index at 5 uM after 24 hrs in presence of 100 nM doxorubucin by alamar blue assay

Caspase-3 (Mus musculus) [35] = biological target: T1, Caspase-3 (Mus musculus); details: 2.5 uM; remark: listed apart in the source
Description: Activation of procaspase-3 in mouse 3LL cells assessed as increase in cell death by measuring combination index at 2.5 uM after 24 hrs in presence of 250 nM doxorubucin by alamar blue assay

Caspase-3 (Mus musculus) [36] = biological target: T1, Caspase-3 (Mus musculus); details: 4T1, 5 uM; remark: listed apart in the source
Description: Activation of procaspase-3 in mouse 4T1 cells assessed as increase in cell death by measuring combination index at 5 uM after 24 hrs in presence of 250 nM doxorubucin by alamar blue assay

Caspase-3 (Mus musculus) [37] = biological target: T1, Caspase-3 (Mus musculus); details: 7.5 uM; remark: listed apart in the source
Description: Activation of procaspase-3 in mouse B16F10 cells assessed as increase in cell death by measuring combination index at 7.5 uM after 24 hrs in presence of 50 nM doxorubucin by alamar blue assay

Caspase-3 (Mus musculus) [38] = biological target: T1, Caspase-3 (Mus musculus); details: EL4, 5 uM; remark: listed apart in the source
Description: Activation of procaspase-3 in mouse EL4 cells assessed as increase in cell death by measuring combination index at 5 uM after 24 hrs in presence of 2500 nM doxorubucin by alamar blue assay

Caspase-3 (Mus musculus) [39] = biological target: T1, Caspase-3 (Mus musculus); details: 7.5 uM; remark: listed apart in the source
Description: Activation of procaspase-3 in mouse 3LL cells assessed as increase in cell death by measuring combination index at 7.5 uM after 24 hrs in presence of 250 nM doxorubucin by alamar blue assay

Caspase-3 (Mus musculus) [40] = biological target: T1, Caspase-3 (Mus musculus); details: EL4, 10 uM; remark: listed apart in the source
Description: Activation of procaspase-3 in mouse EL4 cells assessed as increase in cell death by measuring combination index at 10 uM after 24 hrs in presence of 100 nM doxorubucin by alamar blue assay

Caspase-3 (Mus musculus) [41] = biological target: T1, Caspase-3 (Mus musculus); details: 5 uM; remark: listed apart in the source
Description: Activation of procaspase-3 in mouse K7M2 cells assessed as increase in cell death by measuring combination index at 5 uM after 24 hrs in presence of 50 nM doxorubucin by alamar blue assay

Caspase-3 (Mus musculus) [42] = biological target: T1, Caspase-3 (Mus musculus); details: 7.5 uM; remark: listed apart in the source
Description: Activation of procaspase-3 in mouse B16F10 cells assessed as increase in cell death by measuring combination index at 7.5 uM after 24 hrs in presence of 25 nM doxorubucin by alamar blue assay

Caspase-3 (Mus musculus) [43] = biological target: T1, Caspase-3 (Mus musculus); details: 5 uM; remark: listed apart in the source
Description: Activation of procaspase-3 in mouse K7M2 cells assessed as increase in cell death by measuring combination index at 5 uM after 24 hrs in presence of 10 nM doxorubucin by alamar blue assay

Caspase-3 (Mus musculus) [44] = biological target: T1, Caspase-3 (Mus musculus); details: 2.5 uM; remark: listed apart in the source
Description: Activation of procaspase-3 in mouse K7M2 cells assessed as increase in cell death by measuring combination index at 2.5 uM after 24 hrs in presence of 25 nM doxorubucin by alamar blue assay

Caspase-3 (Mus musculus) [45] = biological target: T1, Caspase-3 (Mus musculus); details: EL4, 5 uM; remark: listed apart in the source
Description: Activation of procaspase-3 in mouse EL4 cells assessed as increase in cell death by measuring combination index at 5 uM after 24 hrs in presence of 500 nM doxorubucin by alamar blue assay

Caspase-3 (Mus musculus) [46] = biological target: T1, Caspase-3 (Mus musculus); details: 4T1, 2.5 uM; remark: listed apart in the source
Description: Activation of procaspase-3 in mouse 4T1 cells assessed as increase in cell death by measuring combination index at 2.5 uM after 24 hrs in presence of 100 nM doxorubucin by alamar blue assay

Caspase-3 (Mus musculus) [47] = biological target: T1, Caspase-3 (Mus musculus); details: 7.5 uM; remark: listed apart in the source
Description: Activation of procaspase-3 in mouse 3LL cells assessed as increase in cell death by measuring combination index at 7.5 uM after 24 hrs in presence of 50 nM doxorubucin by alamar blue assay

Caspase-3 (Mus musculus) [48] = biological target: T1, Caspase-3 (Mus musculus); details: 2.5 uM; remark: listed apart in the source
Description: Activation of procaspase-3 in mouse 3LL cells assessed as increase in cell death by measuring combination index at 2.5 uM after 24 hrs in presence of 10 nM doxorubucin by alamar blue assay

Caspase-3 (Mus musculus) [49] = biological target: T1, Caspase-3 (Mus musculus); details: 4T1, 5 uM; remark: listed apart in the source
Description: Activation of procaspase-3 in mouse 4T1 cells assessed as increase in cell death by measuring combination index at 5 uM after 24 hrs in presence of 50 nM doxorubucin by alamar blue assay

Caspase-3 (Mus musculus) [50] = biological target: T1, Caspase-3 (Mus musculus); details: 2.5 uM; remark: listed apart in the source
Description: Activation of procaspase-3 in mouse 3LL cells assessed as increase in cell death by measuring combination index at 2.5 uM after 24 hrs in presence of 25 nM doxorubucin by alamar blue assay

Caspase-3 (Mus musculus) [51] = biological target: T1, Caspase-3 (Mus musculus); details: 5 uM; remark: listed apart in the source
Description: Activation of procaspase-3 in mouse K7M2 cells assessed as increase in cell death by measuring combination index at 5 uM after 24 hrs in presence of 100 nM doxorubucin by alamar blue assay

Caspase-3 (Mus musculus) [52] = biological target: T1, Caspase-3 (Mus musculus); details: 2.5 uM; remark: listed apart in the source
Description: Activation of procaspase-3 in mouse 3LL cells assessed as increase in cell death by measuring combination index at 2.5 uM after 24 hrs in presence of 50 nM doxorubucin by alamar blue assay

HL-60 [53] = experiment: Cytotoxicity against human HL60 cells by MTT assay; format: functional, cell-based
[54] = Half life in patient with solid tumor at 230 mg/m2, iv treated for 30 mins by HPLC-MS analysis; format: ADME, organism-based; details: human, in vivo
OVCAR-8 = experiment: Cytotoxicity against human OVCAR8 cells; format: functional, cell-based
HCT-8 = experiment: Cytotoxicity against human HCT8 cells; format: functional, cell-based
HL-60 [55] = experiment: Cytotoxicity against human HL60 cells; format: functional, cell-based

pIC50 [1]: 6.46
SMILES: O=C(N/N=C/c1ccsc1)c1ccc2c(c1)OCO2

pIC50 (Thoracic aorta): 4.13
SMILES: O=C(N/N=C/c1cccs1)c1ccc2c(c1)OCO2

remaining at 10 h, 100 µM [2]: > 93%
SMILES: O=C(N/N=C/c1ccccc1B(O)O)c1ccncc1

CI (Caspase-3 (Mus musculus) [3]): 0.48 to 55.7
CI (Caspase-3 (Mus musculus) [4]): 0.66 to 28.1
CI (Caspase-3 (Mus musculus) [5]): 0.84 to 23.9
CI (Caspase-3 (Mus musculus) [6]): 0.47 to 49.7
CI (Caspase-3 (Mus musculus) [7]): 0.93 to 39.6
CI (Caspase-3 (Mus musculus) [8]): 0.39 to 62.2
CI (Caspase-3 (Mus musculus) [9]): 0.41 to 32.3
CI (Caspase-3 (Mus musculus) [10]): 0.37 to 46.7
CI (Caspase-3 (Mus musculus) [11]): 0.61 to 26.8
CI (Caspase-3 (Mus musculus) [12]): 0.66 to 17.8
CI (Caspase-3 (Mus musculus) [13]): 0.53 to 37
CI (Caspase-3 (Mus musculus) [14]): 0.72 to 29
CI (Caspase-3 (Mus musculus) [15]): 0.81 to 23.1
CI (Caspase-3 (Mus musculus) [16]): 0.53 to 40.7
CI (Caspase-3 (Mus musculus) [17]): 0.63 to 38
CI (Caspase-3 (Mus musculus) [18]): 0.32 to 66.8
CI (Caspase-3 (Mus musculus) [19]): 0.79 to 15
CI (Caspase-3 (Mus musculus) [20]): 0.36 to 27.8
CI (Caspase-3 (Mus musculus) [21]): 0.89 to 12.2
CI (Caspase-3 (Mus musculus) [22]): 0.83 to 22.5
CI (Caspase-3 (Mus musculus) [23]): 0.67 to 55.9
CI (Caspase-3 (Mus musculus) [24]): 0.79 to 30.3
CI (Caspase-3 (Mus musculus) [25]): 0.21 to 61.4
CI (Caspase-3 (Mus musculus) [26]): 0.97 to 12.8
CI (Caspase-3 (Mus musculus) [27]): 0.88 to 16.7
CI (Caspase-3 (Mus musculus) [28]): 0.69 to 27.7
CI (Caspase-3 (Mus musculus) [29]): 0.95 to 15.5
CI (Caspase-3 (Mus musculus) [30]): 0.74 to 23.3
CI (Caspase-3 (Mus musculus) [31]): 0.42 to 58.2
CI (Caspase-3 (Mus musculus) [32]): 0.65 to 31
CI (Caspase-3 (Mus musculus) [33]): 0.86 to 28
CI (Caspase-3 (Mus musculus) [34]): 1.38 to 11.7
CI (Caspase-3 (Mus musculus) [35]): 0.17 to 79.6
CI (Caspase-3 (Mus musculus) [36]): 0.42 to 57.2
CI (Caspase-3 (Mus musculus) [37]): 0.84 to 20.1
CI (Caspase-3 (Mus musculus) [38]): 0.3 to 55.6
CI (Caspase-3 (Mus musculus) [39]): 0.28 to 86.3
CI (Caspase-3 (Mus musculus) [40]): 0.9 to 18.2
CI (Caspase-3 (Mus musculus) [41]): 0.73 to 26.6
CI (Caspase-3 (Mus musculus) [42]): 0.76 to 18.2
CI (Caspase-3 (Mus musculus) [43]): 0.56 to 26.4
CI (Caspase-3 (Mus musculus) [44]): 0.84 to 15.2
CI (Caspase-3 (Mus musculus) [45]): 0.77 to 24
CI (Caspase-3 (Mus musculus) [46]): 0.84 to 21.5
CI (Caspase-3 (Mus musculus) [47]): 0.44 to 41.3
CI (Caspase-3 (Mus musculus) [48]): 0.54 to 18.3
CI (Caspase-3 (Mus musculus) [49]): 0.86 to 24.1
CI (Caspase-3 (Mus musculus) [50]): 0.72 to 20.3
CI (Caspase-3 (Mus musculus) [51]): 0.49 to 42.8
CI (Caspase-3 (Mus musculus) [52]): 0.71 to 28.9
SMILES: C=CCc1cccc(/C=N/NC(=O)CN2CCN(Cc3ccccc3)CC2)c1O

SMILES: COc1cc(C(=O)N(C)/N=C/c2ccccc2)cc(OC)c1OC
pIC50 (HL-60 [53]): 7.52

half-life [54]: 20.1 to 21.1 h
SMILES: COc1cccc2c1C(=O)c1c(O)c3c(c(O)c1C2=O)C[C@@](O)(/C(CO)=N/NC(=O)CCCCCN1C(=O)C=CC1=O)C[C@@H]3OC1C[C@H](N)[C@H](O)[C@H](C)O1 (stereo partly drawn)

SMILES: COc1cc(C(=O)N/N=C/c2cc3ccccc3s2)cc(OC)c1OC
pIC50 (OVCAR-8): 8.05
pIC50 (HCT-8): 8.30
pIC50 (HL-60 [55]): 9.40
